Measured values from US9725445B2, “Cycloalkyl nitrile pyrazolo pyridones as Janus kinase inhibitors” (Merck Sharp & Dohme Corp., priority 2013, dated 2017).

The molecules below were run against JAK1 (Homo sapiens (Human), UniProt P23458) (assay: Jak biochemical HTRF assay, JAK1). Details: HTRF biochemical assay, recombinant GST-tagged catalytic domain; read-out: JAK1 IC50.
JAK1, sequence (P23458 875-1153): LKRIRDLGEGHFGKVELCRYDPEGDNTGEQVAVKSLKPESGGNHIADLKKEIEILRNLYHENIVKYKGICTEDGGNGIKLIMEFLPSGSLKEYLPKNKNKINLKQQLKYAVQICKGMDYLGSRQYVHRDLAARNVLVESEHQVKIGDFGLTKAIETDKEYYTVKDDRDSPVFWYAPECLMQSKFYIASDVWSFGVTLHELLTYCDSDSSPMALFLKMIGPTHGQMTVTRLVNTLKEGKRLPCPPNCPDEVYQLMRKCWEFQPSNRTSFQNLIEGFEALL
Method: Jak Biochemical HTRF Assay Protocol
The ability of compounds to inhibit the activity of JAK1, JAK2, JAK3, and Tyk2 was measured using a recombinant purified GST-tagged catalytic domain for each enzyme (Invitrogen JAK1 #M4290, JAK2 #M4290, JAK3 #M4290, Tyk2 #M4290) in an HTRF format biochemical assay. […] The basic assay protocol is as follows: First, 250 nL of diluted compounds in DMSO were dispensed into the wells of a dry 384-well Black plate (Greiner #781076) using a Labcyte Echo 555 acoustic dispenser. Subsequent reagent additions employed an Agilent Bravo. […] After equilibration, 2 μL of 10×ATP in 1× assay buffer was added to initiate the kinase reaction and the plates were shaken and then incubated at room temperature for 120 minutes. […] Plates were shaken and centrifuged and then incubated 60 minutes at room temperature and then read on a Perkin Elmer Envision (λex=337 nm, λem=665 and 615 nm, TRF delay time=20 μs). HTRF signal=10,000*665 nm reading/615 nm reading. After normalization to untreated controls, the percent inhibition of the HTRF signal at each compound concentration was calculated. The plot of percent inhibition versus the log of compound concentration was fit with a 4-parameter dose response equation to calculate IC50 values.
Final Reaction Conditions were:
Examples of the instant invention were evaluated in JAK1 and JAK2 in vitro binding assays.
For `CC1(C)C(O)c2cc(Nc3nn([C@H]4CCCC[C@@H]4C#N)c4cc[nH]c(=O)c34)ccc2S1(=O)=O` (single isomer, unassigned) [Example 3-173, (1S,2S)-2-(3-{[(3R or 3S)-3-hydroxy-2,2-dimethyl-1,1-dioxido-2,3-dihydro-1-benzothiophen-5-yl]amino}-4-oxo-4,5-dihydro-1H-pyrazolo[4,3-c]pyridin-1-yl)cyclohexanecarbonitrile], the IC50 was 0.094 nM.
Work on `CC1NCc2cc(Nc3nn([C@H]4CCCC[C@@H]4C#N)c4cc[nH]c(=O)c34)ccc21` (single isomer, unassigned) [Example 12-4, (1S,2S)-2-(3-{[(1S or 1R)-1-methyl-2,3-dihydro-1H-isoindol-5-yl]amino}-4-oxo-4,5-dihydro-1H-pyrazolo[4,3-c]pyridin-1-yl)cyclohexanecarbonitrile] yielded an IC50 of 0.58 nM.
`N#C[C@H]1CCCC[C@@H]1n1nc(Nc2ccc(C3(C(F)(F)F)CCCN3)cc2)c2c(=O)[nH]ccc21` (single isomer, unassigned) [Example 15-62, (1S,2S)-2-[4-oxo-3-({4-[(2S or 2R)-2-(trifluoromethyl)pyrrolidin-2-yl]phenyl}amino)-4,5-dihydro-1H-pyrazolo[4,3-c]pyridin-1-yl]cyclohexanecarbonitrile] showed an IC50 of 0.11 nM.
`CC(C)S(=O)(=O)c1ccc(Nc2nn([C@H]3CCCC[C@@H]3C#N)c3cc[nH]c(=O)c23)cc1` [Example 3-141, (1S,2S)-2-[3-({4-[(1-methylethyl)sulfonyl]phenyl}amino)-4-oxo-4,5-dihydro-1H-pyrazolo[4,3-c]pyridin-1-yl]cyclohexanecarbonitrile] was tested, and the IC50 was 0.15 nM.
Molecule `CC(C)(CO)CN1Cc2cc(Nc3nn([C@H]4CCCC[C@@H]4C#N)c4cc[nH]c(=O)c34)ccc2S1(=O)=O` [Example 3-82, (1S,2S)-2-(3-{[2-(3-hydroxy-2,2-dimethylpropyl)-1,1-dioxido-2,3-dihydro-1,2-benzisothiazol-5-yl]amino}-4-oxo-4,5-dihydro-1H-pyrazolo[4,3-c]pyridin-1-yl)cyclohexanecarbonitrile] has an IC50 of 0.11 nM.
`N#C[C@H]1CCCC[C@@H]1n1nc(Nc2cccc(CNC(=O)c3cnco3)c2)c2c(=O)[nH]ccc21` [Example 3-12, N-[3-({1-[(1S,2S)-2-cyanocyclohexyl]-4-oxo-4,5-dihydro-1H-pyrazolo[4,3-c]pyridin-3-yl}amino)benzyl]-1,3-oxazole-5-carboxamide] showed an IC50 of 0.31 nM.
With `CC(c1ccc(Nc2nn([C@H]3CCCC[C@@H]3C#N)c3cc[nH]c(=O)c23)cc1)n1ccnn1` (single isomer, unassigned) [Example 15-41, (1S,2S)-2-[4-oxo-3-({4-[(1R or 1S)-1-(1H-1,2,3-triazol-1-yl)ethyl]phenyl}amino)-4,5-dihydro-1H-pyrazolo[4,3-c]pyridin-1-yl]cyclohexanecarbonitrile] the IC50 was 0.21 nM.
`N#C[C@H]1C[C@H](N2CC(O)C2)CC[C@@H]1n1nc(Nc2ccc(Cl)cc2)c2c(=O)[nH]ccc21` [Example 5-19, (1S,2S,5R)-2-(3-((4-chlorophenyl)amino)-4-oxo-4,5-dihydro-1H-pyrazolo[4,3-c]pyridin-1-yl)-5-(3-hydroxyazetidin-1-yl)cyclohexanecarbonitrile] was tested, and the IC50 was 0.11 nM.
`N#C[C@H]1CCC[C@@H]1n1nc(Nc2ccc(C3(C(F)(F)F)CCCCN3)cc2)c2c(=O)[nH]ccc21` (single isomer, unassigned) [Example 15-72, (1S,2S)-2-[4-oxo-3-({4-[(2R or 2S)-2-(trifluoromethyl)piperidin-2-yl]phenyl}amino)-4,5-dihydro-1H-pyrazolo[4,3-c]pyridin-1-yl]cyclopentanecarbonitrile] showed an IC50 of 0.077 nM.
Molecule `CC(c1ccc(Nc2nn([C@H]3CCCC[C@@H]3C#N)c3cc[nH]c(=O)c23)cc1)n1nccn1` (single isomer, unassigned) [Example 15-22, (1S,2S)-2-[4-oxo-3-({4-[(1R or 1S)-1-(2H-1,2,3-triazol-2-yl)ethyl]phenyl}amino)-4,5-dihydro-1H-pyrazolo[4,3-c]pyridin-1-yl]cyclohexanecarbonitrile] has an IC50 of 0.48 nM.
In the case of `Cc1cc(Nc2nn([C@H]3CCCC[C@@H]3C#N)c3cc[nH]c(=O)c23)ccc1C(C(C)C)n1nccn1` (single isomer, unassigned) [Example 15-35, (1S,2S)-2-[3-({3-methyl-4-[(1S or 1R)-2-methyl-1-(2H-1,2,3-triazol-2-yl)propyl]phenyl}amino)-4-oxo-4,5-dihydro-1H-pyrazolo[4,3-c]pyridin-1-yl]cyclohexanecarbonitrile], the IC50 is reported as 1.2 nM.
`CC(C)(C)OC(=O)C1CCC(N2Cc3cc(Nc4nn([C@H]5CCCC[C@@H]5C#N)c5cc[nH]c(=O)c45)ccc3C2=O)CC1` (single isomer, unassigned) [Example 3-134, (cis or trans)tert-butyl 4-(5-((1-((1S,2S)-2-cyanocyclohexyl)-4-oxo-4,5-dihydro-1H-pyrazolo[4,3-c]pyridin-3-yl)amino)-1-oxoisoindolin-2-yl)cyclohexanecarboxylate] showed an IC50 of 0.16 nM.
With `CC(C)(C)S(=O)(=O)c1ccc(Nc2nn([C@H]3CCCC[C@@H]3C#N)c3cc[nH]c(=O)c23)cc1` [Example 3-143, (1S,2S)-2-(3-{[4-(tert-butylsulfonyl)phenyl]amino}-4-oxo-4,5-dihydro-1H-pyrazolo[4,3-c]pyridin-1-yl)cyclohexanecarbonitrile] the IC50 was 0.12 nM.
`N#C[C@H]1CCCC[C@@H]1n1nc(Nc2ccc(C3(C(F)(F)F)CCCN3)cc2)c2c(=O)[nH]ccc21` (single isomer, unassigned) [Example 15-61, (1S,2S)-2-[4-oxo-3-({4-[(2R or 2S)-2-(trifluoromethyl)pyrrolidin-2-yl]phenyl}amino)-4,5-dihydro-1H-pyrazolo[4,3-c]pyridin-1-yl]cyclohexanecarbonitrile] showed an IC50 of 0.14 nM.
`CS(=O)(=O)c1ccc(Nc2nn([C@H]3CCC[C@@H]3C#N)c3cc[nH]c(=O)c23)cc1` [Example 3-94, (1S,2S)-2-(3-{[4-(methylsulfonyl)phenyl]amino}-4-oxo-4,5-dihydro-1H-pyrazolo[4,3-c]pyridin-1-yl)cyclopentanecarbonitrile] was tested, and the IC50 was 0.12 nM.
`CC1NCc2cc(Nc3nn([C@H]4CCCC[C@@H]4C#N)c4cc[nH]c(=O)c34)ccc21` (single isomer, unassigned) [Example 12-5, (1S,2S)-2-(3-{[(1R or 1S)-1-methyl-2,3-dihydro-1H-isoindol-5-yl]amino}-4-oxo-4,5-dihydro-1H-pyrazolo[4,3-c]pyridin-1-yl)cyclohexanecarbonitrile] showed an IC50 of 0.61 nM.
`CC(c1ccc(Nc2nn([C@H]3CCCC[C@@H]3C#N)c3cc[nH]c(=O)c23)cc1)n1nccn1` (single isomer, unassigned) [Example 15-21, (1S,2S)-2-[4-oxo-3-({4-[(1S or 1R)-1-(2H-1,2,3-triazol-2-yl)ethyl]phenyl}amino)-4,5-dihydro-1H-pyrazolo[4,3-c]pyridin-1-yl]cyclohexanecarbonitrile] gave an IC50 of 0.39 nM.
`N#C[C@H]1CCCC[C@@H]1n1nc(Nc2ccc3c(c2)CC2(CC2)C3(O)C(F)(F)F)c2c(=O)[nH]ccc21` (single isomer, unassigned) [Example 3-124, (1S,2S)-2-(3-(((R or S)-1′-hydroxy-1′-(trifluoromethyl)-1′,3′-dihydrospiro[cyclopropane-1,2′-inden]-5′-yl)amino)-4-oxo-4,5-dihydro-1H-pyrazolo[4,3-c]pyridin-1-yl)cyclohexanecarbonitrile] showed an IC50 of 0.23 nM.
`C[C@H](N[C@@H]1CC[C@@H](n2nc(Nc3ccc(C(F)(F)F)cc3)c3c(=O)[nH]ccc32)[C@H](C#N)C1)C1CC1` [Example 5-14, (1R,2R,5R)-5-(((S)-1-cyclopropylethyl)amino)-2-(4-oxo-3-((4-(trifluoromethyl)phenyl)amino)-4,5-dihydro-1H-pyrazolo[4,3-c]pyridin-1-yl)cyclohexanecarbonitrile] showed an IC50 of 9.4 nM.
For `CN(C)C(c1ccc(Nc2nn([C@H]3CCCC[C@@H]3C#N)c3cc[nH]c(=O)c23)cc1)C(F)(F)F` (single isomer, unassigned) [Example 9-4, (1S,2S)-2-(3-(4-((R or S)-1-(Dimethylamino)-2,2,2-trifluoroethyl)phenylamino)-4-oxo-4,5-dihydropyrazolo[4,3-c]pyridin-1-yl)cyclohexanecarbonitrile], the IC50 was 0.11 nM.
In the case of `N#C[C@@H]1CCCC[C@@H]1n1nc(Nc2ccc(F)cc2)c2c(=O)[nH]ccc21` (racemic) [Example 1-1, (cis)-2-{3-[(4-Fluorophenyl)amino]-4-oxo-4,5-dihydro-1H-pyrazolo[4,3-c]pyridin-1-yl}cyclohexanecarbonitrile], the IC50 is reported as 2.5 nM.
With `CC(C)C(c1ccc(Nc2nn([C@H]3CCCC[C@@H]3C#N)c3cc[nH]c(=O)c23)cc1)n1nccn1` (single isomer, unassigned) [Example 15-30, (1S,2S)-2-[3-({4-[(1S or 1R)-2-methyl-1-(2H-1,2,3-triazol-2-yl)propyl]phenyl}amino)-4-oxo-4,5-dihydro-1H-pyrazolo[4,3-c]pyridin-1-yl]cyclohexanecarbonitrile] the IC50 was 0.36 nM.
